Data on ten molecules can be found in ChEMBL document CHEMBL5465560, “Selectivity Literature for EUbOPEN Chemogenomic Library” (2024).

The target of assay [1] is Serine/threonine-protein kinase pim-3 (Homo sapiens) (UniProt Q86V86). The settings on record: at 10 µM.
Assay [2] concerns the target T1, Serine/threonine-protein kinase VRK1 (Homo sapiens) (UniProt Q99986).
T1 sequence (whole entry): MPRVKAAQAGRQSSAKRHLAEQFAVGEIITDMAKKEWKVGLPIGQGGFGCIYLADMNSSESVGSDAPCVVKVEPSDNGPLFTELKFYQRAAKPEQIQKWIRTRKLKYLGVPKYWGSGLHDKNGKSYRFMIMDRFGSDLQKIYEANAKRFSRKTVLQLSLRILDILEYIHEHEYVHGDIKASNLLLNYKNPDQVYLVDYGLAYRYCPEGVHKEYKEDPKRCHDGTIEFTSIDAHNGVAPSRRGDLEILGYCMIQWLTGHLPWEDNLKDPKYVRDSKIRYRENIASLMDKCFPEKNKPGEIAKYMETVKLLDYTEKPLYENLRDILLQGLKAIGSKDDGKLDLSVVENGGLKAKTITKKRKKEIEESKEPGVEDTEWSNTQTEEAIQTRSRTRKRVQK
Nature of the assay: Selectivity interaction (Kinase panel (DSF assay)) EUB0001558a VRK1.

Assay [3] concerns the target Tyrosine-protein kinase Fer (Homo sapiens) (UniProt P16591). Nature of the assay: Selectivity interaction (Ambit KINOMEscan and KiNATiv profiling in Jurkat cells) EUB0000090b FER. The class given is cell-based. The settings on record: at 1 µM.
Assay [4] deals with T2, Serine/threonine-protein kinase D2 (Homo sapiens) (UniProt Q9BZL6).
T2 sequence (whole entry): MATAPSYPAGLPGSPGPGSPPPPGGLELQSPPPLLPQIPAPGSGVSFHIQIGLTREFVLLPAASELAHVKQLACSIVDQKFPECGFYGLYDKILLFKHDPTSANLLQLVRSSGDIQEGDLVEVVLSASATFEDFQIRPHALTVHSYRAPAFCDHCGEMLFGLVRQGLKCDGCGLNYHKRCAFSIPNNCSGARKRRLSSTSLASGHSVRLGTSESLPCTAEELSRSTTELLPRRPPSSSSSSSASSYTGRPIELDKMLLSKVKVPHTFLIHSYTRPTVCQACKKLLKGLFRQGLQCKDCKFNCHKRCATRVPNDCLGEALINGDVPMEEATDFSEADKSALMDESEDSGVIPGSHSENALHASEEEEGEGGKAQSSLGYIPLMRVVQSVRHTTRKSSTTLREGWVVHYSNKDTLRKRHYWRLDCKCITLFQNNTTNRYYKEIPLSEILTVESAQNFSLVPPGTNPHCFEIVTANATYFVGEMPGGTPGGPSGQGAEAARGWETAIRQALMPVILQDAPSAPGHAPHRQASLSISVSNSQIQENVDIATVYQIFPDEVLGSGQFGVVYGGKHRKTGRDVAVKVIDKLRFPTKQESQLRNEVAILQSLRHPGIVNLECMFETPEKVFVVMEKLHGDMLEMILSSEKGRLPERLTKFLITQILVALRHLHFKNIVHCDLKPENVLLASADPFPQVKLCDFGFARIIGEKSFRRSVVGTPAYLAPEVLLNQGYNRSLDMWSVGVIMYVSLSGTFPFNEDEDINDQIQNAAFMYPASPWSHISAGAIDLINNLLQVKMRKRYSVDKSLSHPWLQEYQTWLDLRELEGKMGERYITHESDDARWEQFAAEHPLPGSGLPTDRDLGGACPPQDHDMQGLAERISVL
The settings on record: at 10 µM.

For assay [5], the target named is Maternal embryonic leucine zipper kinase (Homo sapiens) (UniProt Q14680). The settings on record: at 10 µM.
The test system of assay [6] is Fibroblast growth factor receptor 3 (Homo sapiens), P22607 [G697C]. Nature of the assay: (§1) Selectivity interaction (KinomeScan (DiscoverX)) EUB0001049a FGFR3. The settings on record: at 1 µM.
The target in assay [7] is Fibroblast growth factor receptor 3 (Homo sapiens, UniProt P22607). Described as §1. The settings on record: at 1 µM.
In assay [8] the target is BDNF/NT-3 growth factors receptor (Homo sapiens) (UniProt Q16620). Nature of the assay: Selectivity interaction (KinomeScan (DiscoverX)) EUB0000655a NTRK2. The settings on record: at 10 µM.
Assay [9] concerns the target Serine/threonine-protein kinase SIK2 (Homo sapiens) (UniProt Q9H0K1). The experiment in a line: Selectivity interaction (KinomeScan (DiscoverX)) EUB0000695a SIK2. The settings on record: at 100 nM.
Assay [10] addresses T3, Homeodomain-interacting protein kinase 4 (Homo sapiens) (UniProt Q8NE63).
T3 sequence (whole entry): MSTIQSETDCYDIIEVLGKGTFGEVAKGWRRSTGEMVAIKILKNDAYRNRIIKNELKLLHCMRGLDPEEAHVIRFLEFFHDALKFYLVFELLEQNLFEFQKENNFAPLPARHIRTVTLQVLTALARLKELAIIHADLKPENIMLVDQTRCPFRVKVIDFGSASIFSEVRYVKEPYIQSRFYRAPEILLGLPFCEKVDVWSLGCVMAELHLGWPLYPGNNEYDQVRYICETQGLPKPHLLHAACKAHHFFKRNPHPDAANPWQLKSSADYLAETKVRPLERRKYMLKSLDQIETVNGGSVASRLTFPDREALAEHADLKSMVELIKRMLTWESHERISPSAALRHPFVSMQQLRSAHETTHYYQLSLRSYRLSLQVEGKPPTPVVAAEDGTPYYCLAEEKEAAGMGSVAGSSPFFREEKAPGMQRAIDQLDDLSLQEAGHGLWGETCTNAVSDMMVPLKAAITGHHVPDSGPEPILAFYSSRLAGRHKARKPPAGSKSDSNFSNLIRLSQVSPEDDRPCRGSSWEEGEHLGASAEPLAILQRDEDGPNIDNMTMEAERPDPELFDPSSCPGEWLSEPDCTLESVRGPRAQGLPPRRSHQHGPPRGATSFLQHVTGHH
The experiment in a line: Selectivity interaction (KinomeScan (DiscoverX)) EUB0000695a HIPK4. The settings on record: at 100 nM.

Assay [11] has as its target Ribosomal protein S6 kinase alpha-3 (Homo sapiens, UniProt P51812). The experiment in a line: Selectivity interaction (ActivX KiNativ screen (kinase selectivity in THP-1 cell lysates)) EUB0000639a RPS6KA3. In kind it is subcellular. The settings on record: lysate, at 0.2 µM.
For assay [12], the target named is Ribosomal protein S6 kinase beta-2 (Homo sapiens) (UniProt Q9UBS0). The experiment in a line: Selectivity interaction (ActivX KiNativ screen (ex vivo kinase selectivity in human PBMCs)) EUB0001619a RPS6KB2. In kind it is cell-based. The settings on record: PBMC, at 1 µM.
In assay [13] the target is Mitogen-activated protein kinase 9 (Homo sapiens, UniProt P45984). Nature of the assay: Selectivity interaction (Enzymatic assay) EUB0001199aCl MAPK9.

Chain of Ribosomal protein S6 kinase beta-2 (Homo sapiens) (Q9UBS0 whole entry): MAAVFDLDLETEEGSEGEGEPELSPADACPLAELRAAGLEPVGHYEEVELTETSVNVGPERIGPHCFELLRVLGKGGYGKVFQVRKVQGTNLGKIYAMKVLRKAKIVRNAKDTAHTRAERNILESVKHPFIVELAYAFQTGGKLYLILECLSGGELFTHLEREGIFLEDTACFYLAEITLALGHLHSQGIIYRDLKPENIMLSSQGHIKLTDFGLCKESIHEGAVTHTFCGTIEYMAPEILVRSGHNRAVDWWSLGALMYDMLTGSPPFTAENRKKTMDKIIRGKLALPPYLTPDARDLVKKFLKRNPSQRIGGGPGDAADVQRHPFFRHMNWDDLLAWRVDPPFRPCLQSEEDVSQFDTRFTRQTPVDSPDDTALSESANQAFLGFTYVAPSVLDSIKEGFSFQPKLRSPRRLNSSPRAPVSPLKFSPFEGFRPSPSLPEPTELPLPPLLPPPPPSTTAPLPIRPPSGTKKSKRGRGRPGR
Chain of Tyrosine-protein kinase Fer (Homo sapiens) (P16591 whole entry, looked up): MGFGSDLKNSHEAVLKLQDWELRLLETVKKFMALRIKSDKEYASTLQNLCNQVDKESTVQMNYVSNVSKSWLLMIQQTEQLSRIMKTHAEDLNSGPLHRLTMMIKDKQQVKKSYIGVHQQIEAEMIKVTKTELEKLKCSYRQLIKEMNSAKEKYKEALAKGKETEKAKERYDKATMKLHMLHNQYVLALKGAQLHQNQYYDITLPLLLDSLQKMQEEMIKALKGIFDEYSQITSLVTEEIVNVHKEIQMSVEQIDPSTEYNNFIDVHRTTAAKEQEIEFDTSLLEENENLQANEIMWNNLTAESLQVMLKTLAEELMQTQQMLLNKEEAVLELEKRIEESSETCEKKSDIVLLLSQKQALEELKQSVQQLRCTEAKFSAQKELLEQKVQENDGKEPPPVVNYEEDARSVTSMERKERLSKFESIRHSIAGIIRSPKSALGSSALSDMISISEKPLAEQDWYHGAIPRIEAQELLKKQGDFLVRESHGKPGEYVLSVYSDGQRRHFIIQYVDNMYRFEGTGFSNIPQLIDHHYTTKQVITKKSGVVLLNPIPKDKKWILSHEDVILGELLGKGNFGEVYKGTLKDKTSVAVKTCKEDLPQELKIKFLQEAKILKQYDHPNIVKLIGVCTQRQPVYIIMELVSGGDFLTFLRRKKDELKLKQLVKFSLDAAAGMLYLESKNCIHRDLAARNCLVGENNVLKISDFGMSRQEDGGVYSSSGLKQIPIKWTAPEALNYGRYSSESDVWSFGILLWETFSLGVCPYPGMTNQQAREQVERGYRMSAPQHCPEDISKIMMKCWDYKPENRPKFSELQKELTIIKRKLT
Chain of Serine/threonine-protein kinase SIK2 (Homo sapiens) (Q9H0K1 whole entry, looked up): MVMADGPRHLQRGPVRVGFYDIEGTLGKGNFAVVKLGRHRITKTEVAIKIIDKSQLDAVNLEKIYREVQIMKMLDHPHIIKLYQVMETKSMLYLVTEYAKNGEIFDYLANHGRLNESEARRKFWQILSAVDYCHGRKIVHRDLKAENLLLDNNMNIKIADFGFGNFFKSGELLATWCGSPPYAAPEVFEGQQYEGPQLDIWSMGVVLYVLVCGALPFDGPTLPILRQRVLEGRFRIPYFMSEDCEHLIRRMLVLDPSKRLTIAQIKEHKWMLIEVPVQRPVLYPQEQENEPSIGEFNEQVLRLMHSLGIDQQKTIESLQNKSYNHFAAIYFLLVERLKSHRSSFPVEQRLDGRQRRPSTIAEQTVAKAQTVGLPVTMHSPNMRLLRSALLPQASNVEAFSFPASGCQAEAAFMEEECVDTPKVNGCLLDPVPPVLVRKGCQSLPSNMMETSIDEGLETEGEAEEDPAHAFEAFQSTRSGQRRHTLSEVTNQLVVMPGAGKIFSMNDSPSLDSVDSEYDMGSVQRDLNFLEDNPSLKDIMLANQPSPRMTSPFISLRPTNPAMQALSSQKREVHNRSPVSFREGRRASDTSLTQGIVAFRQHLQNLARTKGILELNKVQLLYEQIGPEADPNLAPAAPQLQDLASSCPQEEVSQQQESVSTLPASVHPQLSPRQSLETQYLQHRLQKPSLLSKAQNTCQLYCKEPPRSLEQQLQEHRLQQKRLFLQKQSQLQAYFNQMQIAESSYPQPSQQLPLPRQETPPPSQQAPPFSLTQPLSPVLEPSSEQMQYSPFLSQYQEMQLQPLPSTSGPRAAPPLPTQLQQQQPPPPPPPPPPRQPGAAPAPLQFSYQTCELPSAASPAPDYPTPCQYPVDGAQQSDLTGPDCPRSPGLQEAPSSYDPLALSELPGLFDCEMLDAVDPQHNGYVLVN
Chain of Maternal embryonic leucine zipper kinase (Homo sapiens) (Q14680 whole entry, looked up): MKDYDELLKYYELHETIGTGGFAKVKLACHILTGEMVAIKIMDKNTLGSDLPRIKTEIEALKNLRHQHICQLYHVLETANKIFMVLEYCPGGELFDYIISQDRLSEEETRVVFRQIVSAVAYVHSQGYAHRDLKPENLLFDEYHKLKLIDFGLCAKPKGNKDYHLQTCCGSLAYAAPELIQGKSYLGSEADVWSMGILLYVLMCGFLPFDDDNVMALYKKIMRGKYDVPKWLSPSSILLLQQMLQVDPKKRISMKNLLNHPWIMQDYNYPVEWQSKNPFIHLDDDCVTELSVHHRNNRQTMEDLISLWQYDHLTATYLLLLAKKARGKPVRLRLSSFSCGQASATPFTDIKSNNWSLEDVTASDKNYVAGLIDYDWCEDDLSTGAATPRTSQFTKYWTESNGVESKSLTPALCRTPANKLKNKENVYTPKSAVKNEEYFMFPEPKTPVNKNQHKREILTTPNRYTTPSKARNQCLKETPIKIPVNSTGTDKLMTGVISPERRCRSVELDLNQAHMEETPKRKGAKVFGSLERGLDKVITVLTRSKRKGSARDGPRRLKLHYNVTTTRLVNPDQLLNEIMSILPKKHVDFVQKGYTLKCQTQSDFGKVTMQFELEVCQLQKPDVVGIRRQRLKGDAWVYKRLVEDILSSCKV
Chain of Ribosomal protein S6 kinase alpha-3 (P51812 whole entry): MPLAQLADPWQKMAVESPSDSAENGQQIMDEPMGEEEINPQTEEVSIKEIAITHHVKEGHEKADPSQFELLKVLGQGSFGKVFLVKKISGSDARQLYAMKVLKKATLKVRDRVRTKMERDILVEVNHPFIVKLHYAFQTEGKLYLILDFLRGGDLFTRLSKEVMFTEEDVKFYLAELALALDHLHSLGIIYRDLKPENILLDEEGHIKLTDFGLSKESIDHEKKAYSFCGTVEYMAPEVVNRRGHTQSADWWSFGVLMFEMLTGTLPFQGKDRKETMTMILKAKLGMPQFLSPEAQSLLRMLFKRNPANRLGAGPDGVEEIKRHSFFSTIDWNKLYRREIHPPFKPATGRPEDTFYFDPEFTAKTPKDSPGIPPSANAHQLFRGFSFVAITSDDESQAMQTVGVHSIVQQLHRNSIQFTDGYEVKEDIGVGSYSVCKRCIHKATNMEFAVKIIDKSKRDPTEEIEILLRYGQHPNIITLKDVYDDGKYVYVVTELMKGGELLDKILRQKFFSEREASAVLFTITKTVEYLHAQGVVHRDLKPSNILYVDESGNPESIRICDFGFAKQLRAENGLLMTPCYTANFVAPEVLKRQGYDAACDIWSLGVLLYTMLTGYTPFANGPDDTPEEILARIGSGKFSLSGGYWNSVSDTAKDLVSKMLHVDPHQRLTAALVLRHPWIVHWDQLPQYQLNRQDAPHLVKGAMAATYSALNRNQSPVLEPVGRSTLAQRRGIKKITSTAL
Chain of Fibroblast growth factor receptor 3 (Homo sapiens), P22607 [G697C] (P22607 whole entry G697C): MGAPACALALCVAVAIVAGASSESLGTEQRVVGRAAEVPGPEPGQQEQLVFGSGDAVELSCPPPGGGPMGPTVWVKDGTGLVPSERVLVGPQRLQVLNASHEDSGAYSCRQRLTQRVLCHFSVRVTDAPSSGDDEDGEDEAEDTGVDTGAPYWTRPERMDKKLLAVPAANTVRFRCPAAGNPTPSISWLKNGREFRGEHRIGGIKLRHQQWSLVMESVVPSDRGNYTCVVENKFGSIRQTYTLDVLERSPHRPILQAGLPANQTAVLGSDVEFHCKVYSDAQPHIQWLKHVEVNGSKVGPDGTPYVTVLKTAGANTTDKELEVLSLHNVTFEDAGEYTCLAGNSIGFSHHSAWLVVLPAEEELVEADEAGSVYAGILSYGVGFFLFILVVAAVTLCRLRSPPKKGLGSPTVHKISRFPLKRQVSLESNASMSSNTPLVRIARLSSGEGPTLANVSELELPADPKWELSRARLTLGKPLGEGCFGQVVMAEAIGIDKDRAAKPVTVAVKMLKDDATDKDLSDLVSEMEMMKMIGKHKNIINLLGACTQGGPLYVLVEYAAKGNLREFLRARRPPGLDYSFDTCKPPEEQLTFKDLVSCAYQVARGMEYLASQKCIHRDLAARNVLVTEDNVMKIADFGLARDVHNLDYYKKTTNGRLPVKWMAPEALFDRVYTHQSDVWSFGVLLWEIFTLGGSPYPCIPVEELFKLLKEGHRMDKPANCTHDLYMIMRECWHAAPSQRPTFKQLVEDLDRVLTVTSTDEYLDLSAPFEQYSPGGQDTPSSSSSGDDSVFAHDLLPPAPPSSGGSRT

Regarding `Cc1cc([C@@H](C)Nc2ccccc2C(=O)O)c2nc(N3CCOCC3)cc(=O)n2c1` [AZD-6482], in [1], the % of control was determined as 100%.

As to `CC(C)(O)[C@H](F)CN1Cc2cc(NC(=O)c3cnn4cccnc34)c(N3CCOCC3)cc2C1=O`, the dTM in assay [2] is -0.3 K.

In assay [3], `CN(C)C/C=C/C(=O)Nc1ccc(C(=O)N2CCCC(Nc3ncc(Cl)c(-c4c[nH]c5ccccc45)n3)C2)cc1` (stereo not drawn) gave a % of control of 82%.

For `CCN(CC)CCCCNc1ncc2cc(-c3cc(OC)cc(OC)c3)c(NC(=O)NC(C)(C)C)nc2n1`, the % of control in assay [4] and in assay [5] was 100% each time.

`COc1cc(Nc2nc(C)cc(-c3cnn4nc(OC)ccc34)n2)cc(C(F)(F)F)c1`: the % of control in assay [6] and in [7] was 96% in each case.

In turn, `CN(C)CCOc1ccc(-c2nc(-c3ccncc3)c(-c3ccc4c(c3)CC/C4=N\O)[nH]2)cc1` came in with a % of control in assay [8] of 75%.

Consider `Cc1cc(F)c(C(=O)Nc2cccc(-c3nncn3C(C)C)n2)cc1-n1cnc(C2CC2)c1`, for which the % of control in assay [9] and in [10] was 100% each time.

Molecule `CC[C@@H]1[C@H](F)C(=O)N[C@@H]1COc1nccc2cc(C(N)=O)c(OC)cc12` [ZIMLOVISERTIB] yielded a % of inhibition in assay [11] of 0%.

`N#Cc1cccc(-c2c[nH]c3ncnc(N4CCOCC4)c23)c1`: in assay [12], the % of inhibition was found to be 19%.

For the molecule `CN1Cc2nccc(-c3cn(C)nc3-c3ccc(F)cc3)c2C1=O`, the IC50 in [13] stood at 4.95 µM.
